Patent publication US12643887B2, “Heterocyclic derivatives with cardiomyocyte proliferation activity for treatment of heart diseases” (Tongji University, priority 2019, dated 2026)
Blank lines part the entries; values can stand above or below the compound they belong to.

What was measured:
human DYRK1A = target: T1, human DYRK1A (Homo sapiens, UniProt Q13627); assay: DYRK1A enzyme assay (ADP-Glo); type: biochemical; conditions: ADP-Glo, ATP 60 μM; read-out: DYRK1A IC50
T1 construct: Recombinant full-length DYRK1A (expressed in E. Coli cells with an N-terminal GST tag); GST (N); purchased SignalChem D09-10G; host or cells: E. coli
Method: The ability of compounds to inhibit human DYRK1A kinase activities was determined using a commercially available ADP-Glo™ Kinase Assay kit (Promega, Cat #V9102) according to the manufacturer's protocol.
Recombinant full-length DYRK1A (expressed in E. Coli cells with an N-terminal GST tag) was purchased from SignalChem (Cat #D09-10G). The DYRK substrate peptide (DYRKtide, sequence: […]) was purchased from SignalChem (Cat #D96-58). This assay, run in a 384-well plate format, is a generic method for measuring kinase activities using an ADP-Glo Kinase Assay Kit. The basic assay procedure involves two steps: (1) Enzymatic step: inhibitors are incubated with the kinase and then ATP (included in the ADP-Glo Kinase Assay Kit) and the DYRKtide are added to start the enzymatic reaction; (2) Detection step: after the kinase reaction, first ADP-Glo™ Reagent is added to terminate the kinase reaction and deplete the remaining ATP. Second, the Kinase Detection Reagent is added to simultaneously convert ADP to ATP and allow the newly synthesized ATP to be measured using a luciferase/luciferin reaction. The light generated is measured using a luminometer.
Briefly, DYRK1A (3 nM) in the enzymatic buffer solutions (40 mM Tris, pH 7.5, 20 mM MgCl2, 0.1 mg/ml BSA, 50 μM DTT) were mixed with various concentrations of inhibitors (dissolved in 100% DMSO). These solutions were incubated for 30 minutes at 25° C., and subsequently a mixture of substrate peptide and ATP was added with the final peptide and ATP concentrations at 20 μM and 60 μM, respectively. The final reaction mixture of enzyme-substrate-ATP-compound was incubated for 60 minutes at 25° C.
Afterwards ADP-Glo™ Reagent was added and the mixture was incubated at 25° C. for 60 minutes. Then Kinase Detection Reagent was added and the final mixture was incubated at 25° C. for 60 minutes. The luminescence signal of the final solution was measured on an Envision instrument (PerkinElmer). The percent (%) inhibition at each concentration of a compound is calculated relative to the luminescence signal in the Max and Min control wells contained within each assay plate. […] The concentrations and percent inhibition values for a test compound are plotted and the concentration of the compound required to achieve 50% inhibition (IC50) is determined with a four-parameter logistic dose response equation.

[1] = tested on: Neonatal Rat Ventricular Myocytes (NRVMs); assay: Myocyte proliferation assay (EdU assay) in neonatal rat ventricular myocytes; type: cell-based; conditions: growth relative to blank myocyte growth without compound added; for Avg 1 uM (average myocyte proliferation): compound 1 uM; for Avg 3 uM (average myocyte proliferation): compound 3 uM; for Avg 10 uM (average myocyte proliferation): compound 10 uM
Method: 1. Isolation of and Culture Neonatal Rat Ventricular Myocytes (NRVMs)
Ventricles from neonatal rats were separated from the atria, cut into small pieces (about 2×2 mm^2) and then dissociated in Ca2+-free HBSS containing 0.125 mg ml-1 trypsin (Gibco), 10 μg ml-1 DNase II (Sigma) and 0.1 mg ml-1 collagenase type IV (Sigma). The digestion was carried out under constant stirring at 37° C. for 5 min. The supernatant was collected with FBS (Gibco) after each digestion period. After digestion, the collected supernatant was centrifuged at 1000 g for 10 min at room temperature, and then cell pellets were resuspended in DMEM (Gibco) supplemented with 10% FBS and with 100 uM 5-bromo-2′-deoxyuridine (Sigma). The resuspended cells were passed through a cell strainer ([…], BD Falcon) and seeded onto 100-mm plastic dishes for 2 h at 37° C. in a 5% CO2 to remove fibroblasts, the supernatant was then collected and plated onto 1% gelatin (Sigma)-coated dishes. 24 h after the seeding, the medium was changed to DMEM (Gibco) containing 2% FBS (Gibco), 1% insulin-transferrin-selenium (ITS; Gibco), 1% Penicillin-Streptomycin (Gibco). After 24 hours of low serum culture, remove the medium with DMEM (Gibco) containing 6% FBS (Gibco), 1% insulin-transferrin-selenium (ITS; Gibco), 1% Penicillin-Streptomycin (Gibco), different concentrations of compounds (the compounds were pre-diluted in the medium and the drug concentration was 10 uM, 3 uM, 1 uM, fully mixed). After 36 h add Edu substrate (Invitrogen) according to the manufacturer's guidelines, and then after 12 h cell can be used.
• 2.1. Immobilization: Remove the medium and fix the cells with […] in 200 ul (whichever is covered) for 15 min and wash the cells twice with 500 ul of PBS for 5 min each time. • 2.2. Broken membrane: Add 200 ul of 0.3% Triton-X 100 (diluted in PBS) to each well, incubate for 10-15 min at room temperature (the time should not be too long), and wash the cells twice with 500 ul of PBS for 5 min each time. • 2.3. Blocking: Add 200 ul of 10% normal goat serum (diluted with 0.1% PBST) to each well, incubate for 1 h at room temperature, and wash twice with 500 ul of 0.1% PBST for 5 min each time. • 2.4. Primary antibody: dilute the primary antibody (abcam, ab8295) to blocking solution at a ratio of 1:200, add 100 ul per well, incubate for 1 h at room temperature (may be slightly longer than 2-3 h), wash the cells twice with 500 ul 0.1% PBST for 5 min each time. • 2.5. Secondary antibody: Dilute the fluorescently labeled secondary antibody (abcam, ab150117) into blocking solution at a ratio of 1:200, add 100 ul per well, incubate for 1 h at room temperature (the time should not be too long), wash the cells twice with 0.1% PBST for 5 min each time, pay attention to the whole process. Protected from light. • 2.6. Edu staining (Invitrogen C10338) • 2.6.1 Prepare Click-iT® reaction cocktail according to Table 3. It was important to add the ingredients in the order listed in the table; otherwise, the reaction would not proceed optimally. Use the Click-iT® reaction cocktail within 15 minutes of preparation.
• 2.6.2 Add 0.1 mL of Click-iT® reaction cocktail to each well containing a coverslip. Rock the plate briefly to ensure that the reaction cocktail is distributed evenly over the coverslip. • 2.6.3 Incubate the plate for 30 minutes at room temperature, protected from light. • 2.6.4 Remove the reaction cocktail, then wash the cells twice with 0.1% PBST for 5 min each time. • 2.7. DAPI staining: DAPI stain was diluted to PBS at a ratio of 1:1000, 100 ul per well, incubated for 30 min at room temperature, and the cells were washed twice with PBS for 5 min each. 3. Data Analysis
We used Molecular Devices' Image Xpress Micro Confocal for high-throughput photo and data analysis.

IC50 (human DYRK1A): < 100 nM
Structure (SMILES): Cn1cnc2ccc(/C=C3\N=C(Nc4ccc5ncsc5c4)NC3=O)cc21 [Example 75, (Z)-2-(benzo[d]thiazol-6-ylamino)-5-((1-methyl-1H-benzo[d]imidazol-6-yl)methylene)-3,5-dihydro-4H-imidazol-4-one]
Avg 1 uM (average myocyte proliferation) [1]: ** (10%-50%)
Avg 3 uM (average myocyte proliferation) [1]: ** (10%-50%)

Structure (SMILES): O=C1NC(NCC2CC2)=N/C1=C\c1ccc2ncsc2c1 [Example 34, (Z)-5-(benzo[d]thiazol-6-ylmethylene)-2-((cyclopropylmethyl)amino)-3,5-dihydro-4H-imidazol-4-one]
Avg 1 uM (average myocyte proliferation) [1]: ** (10%-50%)
Avg 3 uM (average myocyte proliferation) [1]: *** (>50%)

Structure (SMILES): NC(=O)CCN(C1=N/C(=C\c2ccc3c(c2)OCO3)C(=O)N1)c1ccccc1 [Example 36, (Z)-3-((4-(benzo[d][1,3]dioxol-5-ylmethylene)-5-oxo-4,5-dihydro-1H-imidazol-2-yl)(phenyl)amino)propanamide]
IC50 (human DYRK1A): 100 to 1000 nM
Avg 1 uM (average myocyte proliferation) [1]: * (<10% growth relative to blank myocyte growth without compound added.)
Avg 3 uM (average myocyte proliferation) [1]: ** (10%-50%)

IC50 (human DYRK1A): 1000 to 10000 nM
Structure (SMILES): CN(C1=N/C(=C\c2ccc3ncsc3c2)C(=O)N1)c1ccc([N+](=O)[O-])cc1 [Example 43, (Z)-5-(benzo[d]thiazol-6-ylmethylene)-2-(methyl(4-nitrophenyl)amino)-3,5-dihydro-4H-imidazol-4-one]
Avg 1 uM (average myocyte proliferation) [1]: ** (10%-50%)
Avg 3 uM (average myocyte proliferation) [1]: ** (10%-50%)
Avg 10 uM (average myocyte proliferation) [1]: ** (10%-50%)

IC50 (human DYRK1A): 100 to 1000 nM
Structure (SMILES): O=C1NC(N(CCO)c2ccccc2)=N/C1=C\c1ccc2c(c1)OCO2 [Example 13, (Z)-5-(benzo[d][1,3]dioxol-5-ylmethylene)-2-((2-hydroxyethyl)(phenyl)amino)-3,5-dihydro-4H-imidazol-4-one]
Avg 1 uM (average myocyte proliferation) [1]: * (<10% growth relative to blank myocyte growth without compound added.)
Avg 3 uM (average myocyte proliferation) [1]: ** (10%-50%)

IC50 (human DYRK1A): > 10000 nM
Structure (SMILES): Cn1ncc2cc(/C=C3\N=C(Nc4ccc5ncsc5c4)NC3=O)ccc21 [Example 78, (Z)-2-(benzo[d]thiazol-6-ylamino)-5-((1-methyl-1H-indazol-5-yl)methylene)-3,5-dihydro-4H-imidazol-4-one]
Avg 1 uM (average myocyte proliferation) [1]: * (<10% growth relative to blank myocyte growth without compound added.)
Avg 3 uM (average myocyte proliferation) [1]: * (<10% growth relative to blank myocyte growth without compound added.)

IC50 (human DYRK1A): > 10000 nM
Structure (SMILES): O=C1NC(Nc2ccc3ncsc3c2)=N/C1=C\c1ccc2occc2c1 [Example 59, (Z)-2-(benzo[d]thiazol-6-ylamino)-5-(benzofuran-5-ylmethylene)-3,5-dihydro-4H-imidazol-4-one]
Avg 1 uM (average myocyte proliferation) [1]: * (<10% growth relative to blank myocyte growth without compound added.)
Avg 3 uM (average myocyte proliferation) [1]: * (<10% growth relative to blank myocyte growth without compound added.)

Structure (SMILES): O=C1NC(NCc2ccccc2)=N/C1=C\c1ccc2ncsc2c1 [Example 31, (Z)-5-(benzo[d]thiazol-6-ylmethylene)-2-(benzylamino)-3,5-dihydro-4H-imidazol-4-one]
Avg 1 uM (average myocyte proliferation) [1]: ** (10%-50%)
Avg 3 uM (average myocyte proliferation) [1]: ** (10%-50%)

Structure (SMILES): O=C1NC(Nc2ccc3ncsc3c2)=N/C1=C\c1ccc2scnc2c1 [Example 57, (Z)-5-(benzo[d]thiazol-5-ylmethylene)-2-(benzo[d]thiazol-6-ylamino)-3,5-dihydro-4H-imidazol-4-one]
Avg 1 uM (average myocyte proliferation) [1]: * (<10% growth relative to blank myocyte growth without compound added.)
Avg 3 uM (average myocyte proliferation) [1]: * (<10% growth relative to blank myocyte growth without compound added.)

Structure (SMILES): O=C1NC(Nc2ccc(Cl)cc2)=N/C1=C\c1ccc2ncsc2c1 [Example 40, (Z)-5-(benzo[d]thiazol-6-ylmethylene)-2-((4-chlorophenyl)amino)-3,5-dihydro-4H-imidazol-4-one]
Avg 1 uM (average myocyte proliferation) [1]: *** (>50%)
Avg 3 uM (average myocyte proliferation) [1]: *** (>50%)
Avg 10 uM (average myocyte proliferation) [1]: *** (>50%)

Structure (SMILES): COc1ccc(NC2=N/C(=C\c3ccc4ncsc4c3)C(=O)N2)cc1 [Example 25, (Z)-5-(benzo[d]thiazol-6-ylmethylene)-2-((4-methoxyphenyl)amino)-3,5-dihydro-4H-imidazol-4-one]
Avg 1 uM (average myocyte proliferation) [1]: ** (10%-50%)
Avg 3 uM (average myocyte proliferation) [1]: * (<10% growth relative to blank myocyte growth without compound added.)
Avg 10 uM (average myocyte proliferation) [1]: * (<10% growth relative to blank myocyte growth without compound added.)

Structure (SMILES): O=C1NC(Nc2ccccc2)=N/C1=C\c1ccc2ncsc2c1 [Example 6, (Z)-5-(benzo[d]thiazol-6-ylmethylene)-2-(phenylamino)-3,5-dihydro-4H-imidazol-4-one]
Avg 1 uM (average myocyte proliferation) [1]: *** (>50%)
Avg 3 uM (average myocyte proliferation) [1]: ** (10%-50%)
Avg 10 uM (average myocyte proliferation) [1]: * (<10% growth relative to blank myocyte growth without compound added.)

Structure (SMILES): O=C1NC(Nc2ccc3ncsc3c2)=N/C1=C\c1ccc2ncsc2c1 [Example 48, (Z)-2-(benzo[d]thiazol-6-ylamino)-5-(benzo[d]thiazol-6-ylmethylene)-3,5-dihydro-4H-imidazol-4-one]
Avg 1 uM (average myocyte proliferation) [1]: *** (>50%)
Avg 3 uM (average myocyte proliferation) [1]: *** (>50%)
Avg 10 uM (average myocyte proliferation) [1]: *** (>50%)

Structure (SMILES): O=C1NC(Nc2ccc3nccnc3c2)=N/C1=C\c1ccc2ncsc2c1 [Example 82, (Z)-5-(benzo[d]thiazol-6-ylmethylene)-2-(quinoxalin-6-ylamino)-3,5-dihydro-4H-imidazol-4-one]
Avg 1 uM (average myocyte proliferation) [1]: ** (10%-50%)
Avg 3 uM (average myocyte proliferation) [1]: ** (10%-50%)
